This data set deals with GENE-TOX genotoxicity assays, various organisms and cells. The data set can be described thus: GENE-TOX mutagenicity studies. The note with it: for call: Assay Type: In vivo carcinogenicity studies.
The mark [1] stands for this setting: Species/Cell Type: Escherichia coli polA (W3119 vs P3478), Assay Type: Rec-assay, DNA effects (bacterial DNA repair), Assay Code: RE1T, Evaluation Type: Evaluation A (Pre-1980).
Where [2] appears, read: Species/Cell Type: Mammalian polychromatic erythrocytes, Assay Type: Micronucleus test, chromosome aberrations, Assay Code: MNT+, Evaluation Type: Evaluation B (Post-1980).
Where [3] appears, read: Species/Cell Type: Salmonella typhimurium (one or more of the five standard strains: TA98, TA100, TA1535, TA1537, and TA1538), Assay Type: Histidine reverse gene mutation, Ames assay, Assay Code: SALT, Evaluation Type: Evaluation A (Pre-1980).
The mark [4] stands for this setting: Species/Cell Type: Salmonella typhimurium (one or more of the five standard strains: TA98, TA100, TA1535, TA1537, and TA1538), Assay Type: Histidine reverse gene mutation, Ames assay, Assay Code: SAL+*, Activation: With metabolic activation, Evaluation Type: Evaluation A (Pre-1980).
[5] abbreviates: Species/Cell Type: Salmonella typhimurium (one or more of the five standard strains: TA98, TA100, TA1535, TA1537, and TA1538), Assay Type: Histidine reverse gene mutation, Ames assay, Assay Code: SAL+, Evaluation Type: Evaluation A (Pre-1980).
[6] abbreviates: Species/Cell Type: Nonhuman, Assay Code: CCG+, Evaluation Type: Evaluation A (Pre-1980).
Setting [7] is: Species/Cell Type: Chinese hamster lung (V79) cells, Assay Type: Forward gene mutation at the HPRT or ouabain locus, Assay Code: V79+, Evaluation Type: Evaluation A (Pre-1980).
The mark [8] stands for this setting: Species/Cell Type: Drosophila melanogaster, Assay Type: Sex-linked recessive lethal gene mutation, Assay Code: SRL+, Evaluation Type: Evaluation A (Pre-1980).
[9] abbreviates: Species/Cell Type: Drosophila melanogaster, Sex: Male, Assay Type: Heritable translocation test, chromosome aberrations, Assay Code: DHTT, Evaluation Type: Evaluation A (Pre-1980).
Setting [10] is: Species/Cell Type: Drosophila melanogaster, Assay Type: Sex-linked recessive lethal gene mutation, Assay Code: SRLT, Evaluation Type: Evaluation A (Pre-1980).
Setting [11] is: Species/Cell Type: Nonhuman, Assay Code: CCG+L, Evaluation Type: Evaluation A (Pre-1980).

Molecules are shown by their SMILES. The source made the active and inactive calls. How the calls were made is not given here.

For the compound `Brc1ccccc1`, the mutagenic call is “no conclusion” under setting [1]; “active; positive” under setting [2]; “inactive; negative” (Species/Cell Type: Saccharomyces cerevisiae, Assay Type: Mitotic recombination or gene conversion, Assay Code: YEH-, Evaluation Type: Evaluation A (Pre-1980)); “inactive; negative” (Species/Cell Type: Salmonella typhimurium (one or more of the five standard strains: TA98, TA100, TA1535, TA1537, and TA1538), Assay Type: Histidine reverse gene mutation, Ames assay, Assay Code: SAL-, Evaluation Type: Evaluation A (Pre-1980)); “inactive; negative” (Species/Cell Type: Salmonella typhimurium, Assay Type: Forward and reverse gene mutation, host-mediated assay, Assay Code: HMA-, Evaluation Type: Evaluation A (Pre-1980)); “inactive; negative” (Species/Cell Type: Syrian hamster embryo (SHE) cells, Assay Type: Cell transformation, clonal assay, Assay Code: CTC-, Evaluation Type: Evaluation A (Pre-1980)).

`C1N2CN3CN1CN(C2)C3`: the mutagenic call (Species/Cell Type: Escherichia coli polA (W3119 vs P3478), Assay Type: Rec-assay, DNA effects (bacterial DNA repair), Assay Code: RE1+, Evaluation Type: Evaluation A (Pre-1980)) is “active; positive”.

As to `O=C(C#Cc1ccc([N+](=O)[O-])o1)NC1CCCCC1`, for the setting “Species/Cell Type: Neurospora crassa, Assay Type: Forward gene mutation, Assay Code: NEF-, Evaluation Type: Evaluation A (Pre-1980)”, the mutagenic call is “inactive; negative”.

In the case of `Nc1nnc(/C(=C/c2ccc([N+](=O)[O-])o2)c2ccco2)o1`, for the setting “Species/Cell Type: Human diploid fibroblasts, Assay Type: Unscheduled DNA synthesis (UDS) in vitro, DNA effects, Assay Code: UDH+, Evaluation Type: Evaluation A (Pre-1980)”, the mutagenic call is “active; positive”.

On to `OC1C=Cc2cc3ccc4cccc5ccc(c2C1O)c3c45` (configuration not stated), for which the mutagenic call (Species/Cell Type: Mouse prostate cells, Assay Type: Cell transformation, Assay Code: CTM+, Evaluation Type: Evaluation A (Pre-1980)) is “active; positive”.

As to `CCN(CCCCO)N=O`, the mutagenic call under setting [3] was “no conclusion”.

As to `Cc1cc(O)c2c(c1)C(=O)c1cc(OC3O[C@@H](C)[C@H](O)[C@@H](O)[C@H]3O)cc(O)c1C2=O` (some centres not stated), the mutagenic call under setting [4] was “active; positive”.

Regarding `CCCCN(C)N=O`, the mutagenic call reads like this: (Species/Cell Type: Arabidopsis species, Assay Type: Gene mutation, Assay Code: ARM+, Evaluation Type: Evaluation A (Pre-1980)) “active; positive”; under setting [1], “no conclusion”; under setting [4], “active; positive”.

On to `ClCc1c2ccccc2cc2c1ccc1ccccc12`, for which the mutagenic call under setting [5] was “active; positive”.

Take `c1ccc2c(c1)-c1ccc3ccc4cccc5cc-2c1c3c45`: the call under setting [6] was “active; positive”.

In the case of `O=NN1CCOCC1`, the mutagenic call is “active; positive” under setting [7]; “active; positive” under setting [8]; “no conclusion” under setting [9]; “active; positive” (Species/Cell Type: Human lymphocytes or leukocytes, Assay Type: Chromosome aberrations in vivo, Assay Code: CY8+, Evaluation Type: Evaluation A (Pre-1980)); “active; positive” (Species/Cell Type: Mammalian polychromatic erythrocytes, Assay Type: Micronucleus test, chromosome aberrations, Assay Code: MNT+, Evaluation Type: Evaluation A (Pre-1980)); “inactive; negative” (Species/Cell Type: Mouse, Sex: Male, Assay Type: Sperm morphology, Assay Code: SPI-, Evaluation Type: Evaluation A (Pre-1980)). The mutagenic call is, setting by setting: (Species/Cell Type: Nonhuman lymphocytes or leukocytes, Assay Type: Chromosome aberrations in vivo, Assay Code: CY%+, Evaluation Type: Evaluation A (Pre-1980)) “active; positive”; (Species/Cell Type: Nonhuman, Assay Type: Sister-chromatid exchange (SCE) in vitro, Assay Code: SC2+D*, Activation: With metabolic activation, Dose Response: With dose response, Evaluation Type: Evaluation B (Post-1980)) “active; positive”; (Species/Cell Type: Nonhuman, Assay Type: Sister-chromatid exchange (SCE) in vivo, Assay Code: SC3+D, Dose Response: With dose response, Evaluation Type: Evaluation B (Post-1980)) “active; positive”; (Species/Cell Type: Rat primary hepatocytes, Assay Type: Unscheduled DNA synthesis (UDS) in vitro, DNA effects, Assay Code: UDP+, Evaluation Type: Evaluation A (Pre-1980)) “active; positive”; under setting [3], “no conclusion”; (Species/Cell Type: Salmonella typhimurium, Assay Type: Forward and reverse gene mutation, host-mediated assay, Assay Code: HMA+, Evaluation Type: Evaluation A (Pre-1980)) “active; positive”. The call under setting [6] was “active; positive”.

In the case of `O=C(O)C(Cl)(Cl)Cl`, the mutagenic call reads like this: under setting [2], “active; positive”; under setting [3], “no conclusion”; (Species/Cell Type: Vicia faba, Assay Type: Chromosome aberrations, Assay Code: VIC+, Evaluation Type: Evaluation A (Pre-1980)) “active; positive”.

As for `CN=NNc1c(Cl)cc(Cl)cc1Cl`, under setting [10], the mutagenic call is on record as “no conclusion”.

`O=C(Nc1nc(-c2ccc([N+](=O)[O-])o2)cs1)C(F)(F)F`: the mutagenic call (Species/Cell Type: Escherichia coli WP2, Assay Type: Tryptophan reverse gene mutation, Assay Code: WP2+, Evaluation Type: Evaluation A (Pre-1980)) was “active; positive”; the mutagenic call (Species/Cell Type: Escherichia coli WP2 UVRA, Assay Type: Tryptophan reverse gene mutation, Assay Code: WPU-, Evaluation Type: Evaluation A (Pre-1980)) is “inactive; negative”; the mutagenic call under setting [5] was “active; positive”.

On to `CC1(C)N=C(N)N=C(N)N1OCCCOc1cc(Cl)c(Cl)cc1Cl`, for which, under setting [3], the mutagenic call was “no conclusion”.

For `Cc1c2ccccc2c(CO)c2c1ccc1ccccc12`, the mutagenic call under setting [7] is “active; positive”. In addition, the call under setting [11] was “active; positive”.

Consider `CCCCCCCCCCCCN(C)N=O`, for which, under setting [4], the mutagenic call was “active; positive”.

For the compound `CC(=O)N(C)N=O`, the mutagenic call under setting [8] was “active; positive”; the mutagenic call under setting [9] is “no conclusion”; the mutagenic call (Species/Cell Type: Saccharomyces cerevisiae, Assay Type: Forward gene mutation, Assay Code: YEF+, Evaluation Type: Evaluation A (Pre-1980)) was “active; positive”; the mutagenic call (Species/Cell Type: Saccharomyces cerevisiae, Assay Type: Reverse gene mutation, Assay Code: YER+, Evaluation Type: Evaluation A (Pre-1980)) was “active; positive”.

With `[O]=[W](=[O])([OH])[OH]`, the mutagenic call by setting is: (Species/Cell Type: Human lymphocytes, Assay Type: Sister-chromatid exchange (SCE) in vitro, Assay Code: SCLT, Evaluation Type: Evaluation B (Post-1980)) “no conclusion”; (Species/Cell Type: Human, Assay Type: Sister-chromatid exchange (SCE) in vitro, Assay Code: SC1T, Evaluation Type: Evaluation B (Post-1980)) “no conclusion”.

Regarding `O=NN(CCCl)C(=O)NCCNC(=O)N(CCCl)N=O`, the mutagenic call under setting [8] is “active; positive” and the mutagenic call (Species/Cell Type: Saccharomyces cerevisiae, Assay Type: Mitotic recombination or gene conversion, Assay Code: YEC+, Evaluation Type: Evaluation A (Pre-1980)) is “active; positive”.

As to `Clc1ccccc1Cl`, under setting [2], the mutagenic call was “active; positive”.

Regarding `COc1ccc2c3c([nH]c2c1)[C@H](CC(C)(C)O)N1C(=O)[C@@H]2CCCN2C(=O)[C@]1(O)[C@H]3O`, the mutagenic call under setting [3] is recorded as “no conclusion”.

As to `O=[As](=O)O[As](=O)=O`, the mutagenic call is “active; positive” (Species/Cell Type: Bacillus subtilis (H17 vs M45), Assay Type: Rec-assay, spot test, DNA effects (bacterial DNA repair), Assay Code: REW+, Evaluation Type: Evaluation A (Pre-1980)) and “active; positive” (Species/Cell Type: Nonhuman, Assay Type: Sister-chromatid exchange (SCE) in vitro, Assay Code: SC2+, Evaluation Type: Evaluation B (Post-1980)).

Consider `CCOC(=O)CCCCC(=O)OCC`, for which the mutagenic call (Species/Cell Type: Rodents, Sex: Male, Assay Type: Dominant lethal test, Assay Code: DLT+, Evaluation Type: Evaluation A (Pre-1980)) was “active; positive”.

Turning to `CCc1nc(N)nc(N)c1-c1ccc(Cl)cc1`, under setting [3], the mutagenic call is “no conclusion”.

Turning to `O=C(O)CC[N+](=O)[O-]`, the mutagenic call (Species/Cell Type: Fischer rat embryo (RLV/1706) cells, Assay Type: Cell transformation, viral enhanced, Assay Code: CTR+, Evaluation Type: Evaluation A (Pre-1980)) was “active; positive”. Further, the call (Species/Cell Type: Nonhuman, Assay Code: CCG-L, Evaluation Type: Evaluation A (Pre-1980)) is “inactive; negative”.

Consider `C1=CC2OC2c2cc3ccc4cccc5ccc(c21)c3c45` (configuration not stated), for which the mutagenic call is, setting by setting: (Species/Cell Type: Chinese hamster lung (V79) cells, Assay Type: Forward gene mutation at the HPRT or ouabain locus, Assay Code: V79-, Evaluation Type: Evaluation A (Pre-1980)) “inactive; negative”; (Species/Cell Type: Nonhuman, Assay Type: Sister-chromatid exchange (SCE) in vitro, Assay Code: SC2+D, Dose Response: With dose response, Evaluation Type: Evaluation B (Post-1980)) “active; positive”; under setting [5], “active; positive”. Further, the call under setting [11] is “active; positive”.

Take `COC(=O)/C=C(\C)CCCC(C)(Cl)CCCC(C)(C)Cl` (configuration not stated): the mutagenic call under setting [10] is given as “no conclusion”.

The values are drawn from PubChem BioAssay AID1259408 (Genetic Toxicology Data Bank (GENE-TOX), 2018).
